Patent publication US20140255432A1, “SILVESTROL, SILVESTROL ANALOGS AND USES THEREOF” (priority 2011, published 2014)

Tests used:
NK cells against LCL = assay: Antibody-dependent cell-mediated cytotoxicity (ADCC) assay of NK cells with rituximab; assay type: cell-based, human
Experimental: Non-radioactive flow cytometry-based cytotoxicity assays have been described previously (Godoy-Ramirez 2005; Helguera 2011). Co-cultures of PBMC and irradiated LCL were grown in the presence or absence of silvestrol for 14 d and collected. Fresh autologous LCL cells were stained with 200 nM carboxyfluorescein diacetate succinimidyl ester (CFSE) (CellTrace™, Invitrogen) for 15 min at 25° C. prior to being mixed with effectors from the irradiated co-cultures at an effector:target (E:T) ratio of 20:1 for 4 hr at 37° C. After the incubation, cells were stained with 7-aminoactinomycin D (7AAD) (BD Biosciences, San Diego, Calif.) and washed. Cytotoxicity was measured by gating on the CFSE-positive events and measuring the 7AAD-positive cells. (See FIGS. 31 and 32). For antibody-dependent cell-mediated cytotoxicity (ADCC) assays the same technique was used; however, the co-cultured effectors were natural killer (NK) cell-enriched and were incubated in the presence or absence of 5 μg/mL rituximab or herceptin (negative control) (Genentech, Inc., South San Francisco, Calif.) for 4 hr at 37° C.
Next, antibody-dependent cell-mediated cytotoxicity (ADCC) assays were utilized to measure the innate immune response of NK cells to LCL in the presence of silvestrol. […] Fresh CFSE-labeled LCL targets and autologous NK cells were incubated with the monoclonal antibodies rituximab (anti-CD20, expressed on LCL) or herceptin (anti-HER2, not expressed on immune cells). After 4 hr, ADCC was evaluated using CFSE and 7-AAD staining as described above. Specifically, cytotoxicity was measured by CFSE^+/7AAD^+ events. Data are shown relative to the positive control (effectors+targets+ritux) and are the averages of three individual experiments. Bars show −/+ standard deviation.
To determine the acute effect of silvestrol on ADCC, fresh (non-autologous) NK cells were obtained from enriched leukocyte products, incubated 18 hr with or without 10 nM silvestrol, then washed and mixed with CFSE-stained LCL. […]

EBNA2, EBNA3C, BZLF1 = assay: Immunoblot of other EBV proteins in LCL; assay type: cell-based, Epstein-Barr virus; settings: FIG. 3C
Experimental: Cells were harvested and lysed as described (Alinari 2011). Following collection of whole cell lysates, equal amounts of protein were resolved by SDS-PAGE and transferred onto a PVDF membrane (Millipore, Billerica, Mass.). Membrane was probed overnight at 4° C. with β-actin, pSTAT1, pSTAT3, STAT1, STAT3, pAkt, Akt (Cell Signaling Technology, Danvers, Mass.), or LMP-1 (DakoCytomation, Carpinteria, Calif.). After incubation with HRP-conjugated secondary antibody (Cell Signaling Technology), protein was detected with SuperSignal West Pico Chemiluminescent Substrate (Pierce, Rockford, Ill.).
Whole cell protein levels of LMP-1 was evaluated by immunoblot 72 hr after treating with a single dose (10 nM) of silvestrol in seven LCL lines (FIG. 3A). β-actin was included as a loading control. In FIG. 3B, LCL were incubated 24, 72, and 120 hr in the presence of 10 nM silvestrol or vehicle control. Whole cell lysates were immunoblotted for LMP-1. Results are representative of 3 LCL lines. […] Decreases in other latent gene products involved with EBV-driven B cell transformation were observed as well. In FIG. 3D, LCL were incubated as in FIG. 3B and immunoblotted for STAT1, STAT3, AKT and NF-κB p65.

EBV-LPD = assay: hu-PBL-SCID model of EBV-LPD; assay type: in vivo, SCID mice
Experimental: Six week-old female SCID mice (n=28) received anti-asialo antisera prior to engraftment to deplete murine NK cells. Mice were engrafted intraperitoneally with 5×10^7 peripheral blood mononuclear cells (PBMCs) obtained from EBV-positive, healthy donor. Untreated mice in this model develop lethal disseminated (human) lymphoma; median survival varies by PBMC donor for that experiment. Two weeks post-engraftment, treatments were initiated with either vehicle (30% HBPCD) or vehicle+silvestrol (1.5 mg/kg every 48 hrs; n=14 each). 4 and 8 weeks post-engraftment, 2 mice from each group were sacrificed for examination and blood was drawn from all mice to assess human IgG levels (FIG. 23). The remainder of mice (n=10 each) were followed for survival. Survival is defined as absence of IACUC-approved euthanasia criteria (in this model, typically this is weight loss >20%, together with labored breathing and cessation of grooming).
The Hu-PBL-SCID mouse model has been described (Mosier 1992). Human PBMCs were obtained from a healthy EBV seropositive donor. 5×10^7 cells were injected intraperitoneally (IP) into 6 week-old female SCID mice (Taconic) that were NK cell-depleted by pretreatment with anti-asialo (GM1) (Wako Pure Chemical Industries, Richmond, Va.). Engraftment was confirmed by hu-IgG ELISA from serum as described (Baiocchi 1994). Silvestrol treatment began two weeks post-engraftment.
The hu-PBL SCID model has been used to study the effect of compounds on spontaneously derived EBV-driven lymphomas (Fuzzati-Armentero 1998). PBMC from a healthy EBV-positive donor were injected into a group of SCID mice that had been pretreated with anti-asialo (GM1) to deplete murine NK cells. Mice were randomized (n=14/group) and treatment with 1.5 mg/kg silvestrol or vehicle control every 48 hr began two weeks after engraftment. Two weeks after treatment began (four weeks post-engraftment), an ELISA was performed to evaluate human IgG. […] At 4 and 8 weeks post-engraftment, flow cytometry analysis was performed on spleen cells from two mice in each group. […] Spleens were also obtained from mice as the disease progressed and euthanasia criteria were met. […] During the 140-day experiment, the health of the mice was tracked by body weight. Weights of all mice were checked twice weekly.

[1] = 1.5 mg/kg every 48 hr, 140-day experiment

COC(=O)[C@H]1[C@@H](O)[C@@]2(O)c3c(OC)cc(O[C@@H]4O[C@@H]([C@H](O)CO)CO[C@H]4OC)cc3O[C@@]2(c2ccc(OC)cc2)[C@@H]1c1ccccc1 [silvestrol]
ADCC activity of NK cells incubated in media vs. silvestrol (NK cells against LCL; 10 nM, 24 hr pretreatment, DC9 LCLs (FIG. 19)): equivalent ADCC activity | ADCC activity of freshly isolated (non-autologous) NK cells (NK cells against LCL; 18 hr pre-incubation with 10 nM, p=0.854): no observable effect | rituximab-dependent cytotoxic activity of NK cells, expanded with vs. without silvestrol (NK cells against LCL; autologous NK cells, 10 nM for 14 days, p=0.838): similar | EBNA2 and EBNA3C proteins (EBNA2, EBNA3C, BZLF1): affected | expression of BZLF1 (EBNA2, EBNA3C, BZLF1): did not affect | signs of disease at the end of the study (flow cytometry of spleen cells) (EBV-LPD; 1.5 mg/kg every 48 hr): no signs of disease | engraftment of human PBMCs (human immunoglobulin production) (EBV-LPD; 1.5 mg/kg every 48 hr (FIG. 23)): did not affect engraftment | EBV-LPD infiltration of the spleen (flow cytometry) (EBV-LPD; 1.5 mg/kg every 48 hr, 4 and 8 weeks post-engraftment): no tumor burden | body weight compared to vehicle-treated mice (EBV-LPD; [1]): gain weight at a faster pace | ill effects from long-term treatment (EBV-LPD; [1]): did not show observable ill effects | mean spleen weight (EBV-LPD; 1.5 mg/kg every 48 hr, after completion of the experiment at day 140): 72.9 mg | production of human IgG by xenografted B-lymphocytes (EBV-LPD; 1.5 mg/kg every 48 hr, four weeks post-engraftment): did not affect | mice alive at day 140 (overall survival) (EBV-LPD; 1.5 mg/kg every 48 hr, p<0.001 vs. vehicle): 7/7
